This is an account of results in ChEMBL document CHEMBL1124522, “Synthesis and antitumor activity of 5-deaza-5,6,7,8-tetrahydrofolic acid and its N10-substituted analogues” (J Med Chem, 1989).

One data set concerns CCRF-CEM. As to the kind of experiment: Compound was tested for its antitumor activity against human lymphoblastic leukemic cells(CCRF-CEM) in vitro. The data set is classed as functional, cell-based. To be noted: ccrf-cem.
The target of data set [1] is T1, Folylpolyglutamate synthase, mitochondrial (Mus musculus) (UniProt P48760).
T1 sequence (whole entry): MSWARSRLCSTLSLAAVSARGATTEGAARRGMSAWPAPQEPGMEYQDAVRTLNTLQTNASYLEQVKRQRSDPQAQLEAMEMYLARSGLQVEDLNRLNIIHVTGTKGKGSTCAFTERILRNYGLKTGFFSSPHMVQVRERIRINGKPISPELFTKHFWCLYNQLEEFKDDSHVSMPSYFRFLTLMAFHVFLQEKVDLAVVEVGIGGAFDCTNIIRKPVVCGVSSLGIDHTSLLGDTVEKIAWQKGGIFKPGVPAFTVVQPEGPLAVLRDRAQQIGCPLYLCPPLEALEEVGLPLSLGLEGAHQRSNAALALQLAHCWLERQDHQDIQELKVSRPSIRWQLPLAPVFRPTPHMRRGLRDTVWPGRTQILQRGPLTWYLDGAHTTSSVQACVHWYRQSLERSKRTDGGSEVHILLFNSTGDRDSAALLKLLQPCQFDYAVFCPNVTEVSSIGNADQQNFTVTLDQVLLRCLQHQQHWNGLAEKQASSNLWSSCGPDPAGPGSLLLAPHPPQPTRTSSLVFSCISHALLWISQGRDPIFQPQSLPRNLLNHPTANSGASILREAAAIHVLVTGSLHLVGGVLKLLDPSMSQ
Put plainly: Apparent catalytic rate constants (Km) owas determined from mouse liver Folyl-polyglutamate synthase.

The target in data set [2] is T1, Folylpolyglutamate synthase, mitochondrial (Mus musculus). Put plainly: First order catalytic rate constants (k) was determined from mouse liver Folyl-polyglutamate synthase.
Substrate in data set [3]: Nc1nc(N)c2nc(CNc3ccc(C(=O)N[C@@H](CCC(=O)O)C(=O)O)cc3)cnc2n1
As to the kind of experiment: (§1) Catalytic rate constants (Vmax) was determined from mouse liver Folyl-polyglutamate synthase.

Substrate in data set [4]: Nc1nc(O)c2c(n1)NCC(CNc1ccc(C(=O)N[C@@H](CCC(=O)O)C(=O)O)cc1)C2
The data set is described as §1.

Substrate in data set [5]: Nc1nc2c(c(=O)[nH]1)C[C@@H](CCc1ccc(C(=O)N[C@@H](CCC(=O)O)C(=O)O)cc1)CN2
The description is as §1.

Substrate in data set [6]: Nc1nc(=O)c2nc(CNc3ccc(C(=O)N[C@@H](CCC(=O)O)C(=O)O)cc3)cnc2[nH]1
As to the kind of experiment: Catalytic rate folyl-poly-glutamate synthetase.

For orientation: IC50 means the concentration that gives 50% inhibition. Lower therefore signals inhibition by little substance.

`Nc1nc(O)c2c(n1)NCC(CNc1ccc(C(=O)N[C@@H](CCC(=O)O)C(=O)O)cc1)C2` (stereo in doubt; 7a-A) gave an IC50 in the data set on CCRF-CEM of 6 nM.

Turning to `Nc1nc2c(c(=O)[nH]1)C[C@@H](CCc1ccc(C(=O)N[C@@H](CCC(=O)O)C(=O)O)cc1)CN2` (stereo in doubt; form 1) [LOMETREXOL], half-maximal inhibition in the data set on CCRF-CEM (IC50) required 8 nM.

Turning to `Nc1nc2c(c(=O)[nH]1)C[C@@H](CCc1ccc(C(=O)N[C@@H](CCC(=O)O)C(=O)O)cc1)CN2` (stereo in doubt; form 2) [LOMETREXOL], in the data set with CCRF-CEM, the midpoint of inhibition, the IC50, lay at 5 nM.

As to `Nc1nc2c(c(=O)[nH]1)C[C@@H](CCc1ccc(C(=O)N[C@@H](CCC(=O)O)C(=O)O)cc1)CN2` (stereo in doubt; form 3), in data set [1], the Km app worked out at 7.3 µM. The molecule further had a k in data set [2] of 32.

`Nc1nc2c(c(=O)[nH]1)C[C@@H](CCc1ccc(C(=O)N[C@@H](CCC(=O)O)C(=O)O)cc1)CN2` (stereo in doubt; form 3) [LOMETREXOL] displayed an IC50 in the data set on CCRF-CEM of 20 nM.

B1: Folylpolyglutamate synthase, mitochondrial (Mus musculus), P48760 (protein)
chain: MSWARSRLCSTLSLAAVSARGATTEGAARRGMSAWPAPQEPGMEYQDAVRTLNTLQTNASYLEQVKRQRSDPQAQLEAMEMYLARSGLQVEDLNRLNIIHVTGTKGKGSTCAFTERILRNYGLKTGFFSSPHMVQVRERIRINGKPISPELFTKHFWCLYNQLEEFKDDSHVSMPSYFRFLTLMAFHVFLQEKVDLAVVEVGIGGAFDCTNIIRKPVVCGVSSLGIDHTSLLGDTVEKIAWQKGGIFKPGVPAFTVVQPEGPLAVLRDRAQQIGCPLYLCPPLEALEEVGLPLSLGLEGAHQRSNAALALQLAHCWLERQDHQDIQELKVSRPSIRWQLPLAPVFRPTPHMRRGLRDTVWPGRTQILQRGPLTWYLDGAHTTSSVQACVHWYRQSLERSKRTDGGSEVHILLFNSTGDRDSAALLKLLQPCQFDYAVFCPNVTEVSSIGNADQQNFTVTLDQVLLRCLQHQQHWNGLAEKQASSNLWSSCGPDPAGPGSLLLAPHPPQPTRTSSLVFSCISHALLWISQGRDPIFQPQSLPRNLLNHPTANSGASILREAAAIHVLVTGSLHLVGGVLKLLDPSMSQ
As for B1, the Vmax in data set [3] turned out to be 1.59; in data set [4], 1.3; in data set [5], 1.26; in data set [6], 1.
